# Results taken from ChEMBL document CHEMBL1201862, “PubChem BioAssay data set” (2004).
# Activity calls are given as the source filed them.
# How the values were obtained:
# [1] = cytotoxicity toward DRD oncogenic fibroblasts, dose response, cell-based, non-viral oncogenic, luminescence (AID 1934); assay type: functional; settings: Homo sapiens
# [2] = tested on: BJ; test: cytotoxicity toward BJ-TERT-LT-ST fibroblasts, dose response, cell-based, RAS-independent, luminescence (AID 1935); assay type: functional; settings: Homo sapiens;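 also: BJ fibroblasts immortalized with TERT plus LT and ST oncogenes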
# [3] = tested on: BJ; test: cells; assay type: functional, cell-based; settings: Homo sapiens
# [4] = tested on: BJ; test: cytotoxicity toward BJ-TERT fibroblasts, dose response, cell-based, RAS-independent, luminescence (AID 1933); assay type: functional; settings: Homo sapiens
# [5] = biological target: Voltage-dependent T-type calcium channel subunit alpha-1H (Homo sapiens, UniProt O95180); assay type: functional;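 also: channel activity triggered by adding a high calcium stimulation buffer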
# [6] = biological target: 72 kDa type IV collagenase (Homo sapiens, UniProt P08253); test: Dose Response validation of uHTS RPN11 inhibitor hits using a MMP-2 Fluorescence assay.; assay type: functional
# [7] = biological target: 26S proteasome non-ATPase regulatory subunit 14 (Homo sapiens, UniProt O00487); test: inhibition of proteasome subunit RPN11 – biochemical, fluorescence polarization, uHTS hits, confirmation (AID 602368); assay type: functional
# [8] = biological target: Large T antigen (Simian virus 40, UniProt P03070); assay type: functional, Betapolyomavirus macacae;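 also: Confirmatory-stage PubChem screen for compounds that inhibit SV40 T antigen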
# [9] = biological target: Prothrombin (Bos taurus, UniProt P00735); test: thrombin inhibition, dose response, biochemical, fluorescence polarization, uHTS hits (AID 602369); assay type: functional
# [10] = biological target: Heat shock protein HSP 90-alpha (Homo sapiens, UniProt P07900); assay type: functional, organism-based
# [11] = CRF-BP/CRF-R2 complex antagonists, dose response, cell-based, uHTS hits, 384-well (AID 651639); assay type: functional, Homo sapiens; settings: read-out: IC50_Mean
# [12] = biological target: T1, Corticotropin-releasing factor receptor 2/Corticotropin-releasing factor-binding protein (Homo sapiens, UniProt P24387+Q13324); test: activators of CRF receptor 2 with binding protein – uHTS hits, confirmation (AID 602473); assay type: functional; settings: read-out: EC50_Mean
# T1 sequence (Q13324 whole entry): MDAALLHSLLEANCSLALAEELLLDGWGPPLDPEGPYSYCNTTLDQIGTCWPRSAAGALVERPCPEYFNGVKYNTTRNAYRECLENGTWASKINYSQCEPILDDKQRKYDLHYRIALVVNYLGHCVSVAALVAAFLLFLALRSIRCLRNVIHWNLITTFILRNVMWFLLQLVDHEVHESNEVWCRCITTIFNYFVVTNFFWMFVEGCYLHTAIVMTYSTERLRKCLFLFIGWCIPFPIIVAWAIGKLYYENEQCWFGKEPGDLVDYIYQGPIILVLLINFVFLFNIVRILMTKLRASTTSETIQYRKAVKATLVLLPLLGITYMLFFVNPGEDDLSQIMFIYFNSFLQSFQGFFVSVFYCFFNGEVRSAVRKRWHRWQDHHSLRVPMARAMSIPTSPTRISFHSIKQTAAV
# T1 sequence (P24387 whole entry): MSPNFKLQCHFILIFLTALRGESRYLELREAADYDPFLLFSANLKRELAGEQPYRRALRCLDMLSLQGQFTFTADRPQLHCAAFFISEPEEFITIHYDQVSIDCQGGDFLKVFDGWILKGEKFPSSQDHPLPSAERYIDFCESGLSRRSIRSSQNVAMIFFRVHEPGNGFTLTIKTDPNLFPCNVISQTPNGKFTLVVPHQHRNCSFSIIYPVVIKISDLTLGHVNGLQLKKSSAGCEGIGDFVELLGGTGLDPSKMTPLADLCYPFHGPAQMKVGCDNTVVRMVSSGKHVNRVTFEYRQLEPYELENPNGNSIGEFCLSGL
# [13] = biological target: T1, Corticotropin-releasing factor receptor 2/Corticotropin-releasing factor-binding protein; test: Dose Response confirmation of uHTS hits for small molecule antagonists of the CRF-binding protein and CRF-R2 receptor complex.; assay type: functional; settings: read-out: IC50_Mean
# [14] = biological target: T2, Apoptotic protease-activating factor 1 (Homo sapiens, UniProt O14727); assay type: functional
# T2 sequence (O14727 whole entry): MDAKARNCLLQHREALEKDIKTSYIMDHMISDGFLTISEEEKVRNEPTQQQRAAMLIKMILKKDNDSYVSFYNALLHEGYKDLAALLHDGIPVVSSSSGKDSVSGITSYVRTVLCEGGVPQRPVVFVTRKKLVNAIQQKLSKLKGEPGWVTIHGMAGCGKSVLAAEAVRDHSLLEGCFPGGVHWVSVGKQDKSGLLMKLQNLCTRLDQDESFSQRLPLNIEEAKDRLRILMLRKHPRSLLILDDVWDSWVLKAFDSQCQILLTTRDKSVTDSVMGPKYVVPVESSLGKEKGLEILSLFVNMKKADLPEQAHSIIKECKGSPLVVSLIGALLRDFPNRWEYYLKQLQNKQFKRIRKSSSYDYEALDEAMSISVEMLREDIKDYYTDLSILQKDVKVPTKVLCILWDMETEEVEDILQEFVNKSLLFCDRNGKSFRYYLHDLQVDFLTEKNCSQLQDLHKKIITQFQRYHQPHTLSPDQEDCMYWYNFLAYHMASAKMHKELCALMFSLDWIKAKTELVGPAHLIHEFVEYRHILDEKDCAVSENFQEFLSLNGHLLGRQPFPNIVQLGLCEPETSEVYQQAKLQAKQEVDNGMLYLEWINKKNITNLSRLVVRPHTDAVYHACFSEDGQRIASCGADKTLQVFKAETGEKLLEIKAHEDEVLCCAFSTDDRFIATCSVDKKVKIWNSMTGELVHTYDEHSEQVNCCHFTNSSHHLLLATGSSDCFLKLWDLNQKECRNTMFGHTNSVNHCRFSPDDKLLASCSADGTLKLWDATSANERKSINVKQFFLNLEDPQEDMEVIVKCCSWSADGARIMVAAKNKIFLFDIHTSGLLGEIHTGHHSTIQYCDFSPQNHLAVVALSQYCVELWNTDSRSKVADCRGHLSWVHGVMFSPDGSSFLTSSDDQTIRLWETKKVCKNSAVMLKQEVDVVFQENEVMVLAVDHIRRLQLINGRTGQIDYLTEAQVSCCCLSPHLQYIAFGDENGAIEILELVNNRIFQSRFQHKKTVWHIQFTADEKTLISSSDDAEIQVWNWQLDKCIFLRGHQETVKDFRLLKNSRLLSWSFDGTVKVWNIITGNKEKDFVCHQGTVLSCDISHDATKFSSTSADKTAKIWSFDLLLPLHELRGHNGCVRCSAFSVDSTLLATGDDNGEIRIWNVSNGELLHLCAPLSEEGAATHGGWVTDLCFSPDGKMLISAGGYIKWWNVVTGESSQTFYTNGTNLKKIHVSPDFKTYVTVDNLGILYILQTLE
# Sequence of Large T antigen (P03070 whole entry): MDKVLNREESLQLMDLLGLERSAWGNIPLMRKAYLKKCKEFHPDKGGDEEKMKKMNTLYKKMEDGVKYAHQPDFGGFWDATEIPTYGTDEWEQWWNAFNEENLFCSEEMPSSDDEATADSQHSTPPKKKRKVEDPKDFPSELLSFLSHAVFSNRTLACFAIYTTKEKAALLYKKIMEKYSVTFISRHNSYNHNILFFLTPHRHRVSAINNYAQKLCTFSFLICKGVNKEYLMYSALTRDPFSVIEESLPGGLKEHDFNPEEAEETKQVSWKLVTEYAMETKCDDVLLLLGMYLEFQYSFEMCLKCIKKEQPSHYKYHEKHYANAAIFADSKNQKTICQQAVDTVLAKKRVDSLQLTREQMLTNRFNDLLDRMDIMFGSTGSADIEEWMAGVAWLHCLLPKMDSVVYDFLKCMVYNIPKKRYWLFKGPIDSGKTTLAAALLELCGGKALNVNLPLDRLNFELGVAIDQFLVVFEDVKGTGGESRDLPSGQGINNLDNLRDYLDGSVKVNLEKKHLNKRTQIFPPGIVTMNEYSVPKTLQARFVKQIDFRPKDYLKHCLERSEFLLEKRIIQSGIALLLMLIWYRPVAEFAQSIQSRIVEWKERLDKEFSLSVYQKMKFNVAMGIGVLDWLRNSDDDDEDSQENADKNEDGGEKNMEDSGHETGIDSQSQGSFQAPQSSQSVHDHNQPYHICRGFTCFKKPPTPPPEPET
# Sequence of 26S proteasome non-ATPase regulatory subunit 14 (O00487 whole entry): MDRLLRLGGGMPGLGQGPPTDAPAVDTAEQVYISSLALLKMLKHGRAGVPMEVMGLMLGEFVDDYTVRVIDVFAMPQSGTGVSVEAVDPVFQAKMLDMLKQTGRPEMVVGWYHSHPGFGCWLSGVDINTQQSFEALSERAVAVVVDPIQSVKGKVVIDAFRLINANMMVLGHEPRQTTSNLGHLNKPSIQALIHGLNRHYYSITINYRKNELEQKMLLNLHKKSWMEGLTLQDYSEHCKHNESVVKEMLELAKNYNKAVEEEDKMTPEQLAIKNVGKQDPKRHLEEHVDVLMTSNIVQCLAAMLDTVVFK
# Sequence of Voltage-dependent T-type calcium channel subunit alpha-1H (O95180 whole entry): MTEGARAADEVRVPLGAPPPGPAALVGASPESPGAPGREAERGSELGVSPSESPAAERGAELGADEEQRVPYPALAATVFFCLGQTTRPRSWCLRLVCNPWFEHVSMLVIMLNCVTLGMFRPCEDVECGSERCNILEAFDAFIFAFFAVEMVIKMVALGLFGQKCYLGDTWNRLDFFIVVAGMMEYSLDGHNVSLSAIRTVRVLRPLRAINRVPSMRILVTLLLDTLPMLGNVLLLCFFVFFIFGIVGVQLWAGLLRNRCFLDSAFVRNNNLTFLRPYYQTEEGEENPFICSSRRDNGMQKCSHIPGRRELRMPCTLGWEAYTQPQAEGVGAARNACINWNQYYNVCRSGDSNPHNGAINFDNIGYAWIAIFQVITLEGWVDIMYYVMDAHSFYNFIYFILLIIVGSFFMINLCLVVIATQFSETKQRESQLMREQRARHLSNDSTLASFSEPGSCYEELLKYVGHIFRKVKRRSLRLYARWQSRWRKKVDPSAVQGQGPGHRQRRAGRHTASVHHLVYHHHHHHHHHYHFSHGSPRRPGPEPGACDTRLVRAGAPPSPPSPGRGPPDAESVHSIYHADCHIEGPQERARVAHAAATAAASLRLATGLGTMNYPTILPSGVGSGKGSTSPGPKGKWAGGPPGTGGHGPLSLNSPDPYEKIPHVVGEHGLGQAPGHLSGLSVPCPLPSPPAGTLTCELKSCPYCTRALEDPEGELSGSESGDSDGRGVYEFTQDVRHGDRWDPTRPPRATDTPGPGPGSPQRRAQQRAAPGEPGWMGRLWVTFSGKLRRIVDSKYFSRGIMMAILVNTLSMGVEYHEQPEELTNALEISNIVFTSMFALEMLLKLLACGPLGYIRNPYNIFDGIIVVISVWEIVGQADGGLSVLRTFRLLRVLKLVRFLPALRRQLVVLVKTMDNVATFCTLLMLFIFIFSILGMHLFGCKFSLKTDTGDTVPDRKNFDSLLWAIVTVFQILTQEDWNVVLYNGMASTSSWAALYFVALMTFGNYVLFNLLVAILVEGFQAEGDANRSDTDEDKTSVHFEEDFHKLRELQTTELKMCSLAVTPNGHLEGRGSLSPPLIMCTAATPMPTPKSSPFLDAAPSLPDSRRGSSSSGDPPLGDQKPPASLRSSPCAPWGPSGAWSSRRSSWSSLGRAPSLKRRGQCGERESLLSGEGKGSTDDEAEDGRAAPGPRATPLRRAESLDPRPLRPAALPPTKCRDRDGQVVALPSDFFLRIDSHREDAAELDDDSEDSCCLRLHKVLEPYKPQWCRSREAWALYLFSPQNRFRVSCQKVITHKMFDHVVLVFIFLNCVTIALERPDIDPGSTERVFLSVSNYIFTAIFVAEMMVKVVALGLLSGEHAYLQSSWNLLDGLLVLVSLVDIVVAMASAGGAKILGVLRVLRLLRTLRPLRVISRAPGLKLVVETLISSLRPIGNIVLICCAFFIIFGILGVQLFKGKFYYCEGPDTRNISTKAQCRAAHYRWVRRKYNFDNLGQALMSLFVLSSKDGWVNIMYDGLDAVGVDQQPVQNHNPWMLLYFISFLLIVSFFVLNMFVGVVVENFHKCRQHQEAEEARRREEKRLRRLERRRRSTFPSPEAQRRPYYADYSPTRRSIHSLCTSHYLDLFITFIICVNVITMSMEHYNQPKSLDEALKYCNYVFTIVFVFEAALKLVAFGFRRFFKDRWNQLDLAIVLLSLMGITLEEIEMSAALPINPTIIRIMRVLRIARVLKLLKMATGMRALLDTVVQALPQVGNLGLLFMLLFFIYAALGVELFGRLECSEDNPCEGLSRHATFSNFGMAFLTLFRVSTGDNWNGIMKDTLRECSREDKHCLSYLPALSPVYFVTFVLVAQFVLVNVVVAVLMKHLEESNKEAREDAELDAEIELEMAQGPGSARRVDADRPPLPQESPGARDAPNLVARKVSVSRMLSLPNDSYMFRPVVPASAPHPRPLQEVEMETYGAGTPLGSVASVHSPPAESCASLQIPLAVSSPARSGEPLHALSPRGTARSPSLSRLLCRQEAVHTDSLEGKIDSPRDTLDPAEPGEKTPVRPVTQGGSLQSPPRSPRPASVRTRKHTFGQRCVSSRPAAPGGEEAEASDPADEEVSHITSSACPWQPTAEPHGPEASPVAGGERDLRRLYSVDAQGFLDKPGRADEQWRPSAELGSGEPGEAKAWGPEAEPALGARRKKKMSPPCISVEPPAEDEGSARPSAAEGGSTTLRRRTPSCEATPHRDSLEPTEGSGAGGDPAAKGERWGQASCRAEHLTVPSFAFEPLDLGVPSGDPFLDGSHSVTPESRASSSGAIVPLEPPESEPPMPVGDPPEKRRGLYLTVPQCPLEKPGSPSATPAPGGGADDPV
# Sequence of 72 kDa type IV collagenase (P08253 whole entry): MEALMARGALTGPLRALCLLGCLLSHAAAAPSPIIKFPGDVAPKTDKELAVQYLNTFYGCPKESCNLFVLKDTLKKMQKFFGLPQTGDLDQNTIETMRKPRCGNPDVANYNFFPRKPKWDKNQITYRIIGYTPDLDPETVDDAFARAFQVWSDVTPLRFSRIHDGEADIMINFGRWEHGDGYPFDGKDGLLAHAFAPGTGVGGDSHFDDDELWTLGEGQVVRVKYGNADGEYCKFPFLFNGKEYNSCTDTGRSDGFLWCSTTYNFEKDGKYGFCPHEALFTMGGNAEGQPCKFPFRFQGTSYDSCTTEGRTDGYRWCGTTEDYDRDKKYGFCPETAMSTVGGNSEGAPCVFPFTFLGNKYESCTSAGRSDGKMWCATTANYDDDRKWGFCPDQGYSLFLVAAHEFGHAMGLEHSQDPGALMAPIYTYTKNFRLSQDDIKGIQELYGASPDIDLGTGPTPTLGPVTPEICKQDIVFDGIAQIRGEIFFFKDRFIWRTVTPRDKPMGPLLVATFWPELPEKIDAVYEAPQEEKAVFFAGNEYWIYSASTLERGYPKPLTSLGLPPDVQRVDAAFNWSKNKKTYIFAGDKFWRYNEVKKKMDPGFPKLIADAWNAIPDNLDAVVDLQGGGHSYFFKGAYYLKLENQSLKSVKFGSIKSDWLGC
structure (smiles),measurement,setting,value
CCCCN1C(=O)/C(=C/C=C/C=C/Nc2ccccc2)SC1=S,EC50,[1],19.8 µM (active)
same,EC50,[2],> 150 µM (not active)
same,EC50,[3],24.6 µM (active)
same,EC50,[4],31.6 µM (active)
O=C(CCS(=O)(=O)c1ccc(Br)cc1)N1CCN(c2ccccc2Cl)CC1,EC50,[5],4.8 µM (active)
N#C/C(=C\c1ccc(O)c(O)c1)C(=O)N1CCc2ccccc21,IC50,[6],> 100 µM (inactive)
same,IC50,[7],0.798 µM (active)
same,IC50,[8],11.9 µM (active)
same,IC50,[9],45.9 µM (active)
O=[N+]([O-])c1ccc([S+]([O-])Cc2ccccc2)c([N+](=O)[O-])c1 (stereo unspecified),AC50,[10],2.17 µM (active)
CN1CCN(c2ccc([N+](=O)[O-])cc2C(=O)c2ccccc2)CC1,EC50,[1],> 150 µM (not active)
same,EC50,[2],> 150 µM (not active)
same,EC50,[3],> 150 µM (not active)
same,EC50,[4],39.6 µM (active)
CCOC(=O)c1c(NC(=O)c2c(Br)cnn2C)c(C#N)nn1-c1ccccc1,IC50,[11],18.4 µM (active)
same,EC50,[12],> 53 µM (inactive)
same,IC50,[13],43.9 µM (active)
O=C(CCC(=O)N1CCN(c2ccc(O)cc2)CC1)c1cccs1,IC50,[8],5.54 µM (active)
Cc1cc(C)n2nc(C(=O)N/N=C/c3ccc(O)cc3)nc2n1,IC50,[8],43.9 µM (active)
Cc1ccccc1-c1nc(CS(=O)(=O)CC(=O)N(C)C2CCCCC2)c(C)o1,EC50,[5],1.26 µM (active)
CN(CC(=O)Nc1ccc(Cl)c(C(F)(F)F)c1)C(=O)CC1Sc2ccccc2NC1=O (stereo unspecified),IC50,[14],33.6 µM (active)
COc1ccc(N2CCN(C(=O)c3ccc(Br)cc3)CC2)c([N+](=O)[O-])c1,AC50,[10],0.691 µM (active)
NC(=O)CC(NC(=O)Cc1ccc(Cl)cc1)c1ccc(NC2CCCC2)c([N+](=O)[O-])c1 (stereo unspecified),IC50,[6],> 100 µM (inactive)
same,IC50,[7],29.9 µM (active)
same,IC50,[9],38.8 µM (active)
CN(C)c1ccc(NC(=O)CSc2nnc(-c3ccco3)c(-c3ccco3)n2)cc1,IC50,[8],6.98 µM (active)
